The values that follow come from patent US20240050428A1 (Cullgen (Shanghai), Inc., priority 2020, published 2024).

One experiment relates to MV4;11 cells. Description: Cell viability assay (CellTiter-Glo) in MV4;11 cells, alone or with gilteritinib. It counts as cell-based. The following applies: Homo sapiens, MV4-11, 72 h, read-out: MV4.
The next experiment concerns MOLM-13 cells. Description: Cell viability assay (CellTiter-Glo) in MOLM-13 cells, alone or with gilteritinib. The following applies: Homo sapiens, MOLM-13, 72 h. It counts as cell-based. For orientation: Cellular ATP, detected with luciferase, serves as a proxy for viable cell number.
The mark [1] stands for this setting: MV4;11 cells, compound alone (without gilteritinib), three days, CellTiter-Glo, 11 IC50.
The mark [2] stands for this setting: MV4;11 cells, compound with gilteritinib 10 nM, three days, CellTiter-Glo, 11 IC50 gilteritinib.
The mark [3] stands for this setting: MOLM-13 cells, compound alone (without gilteritinib), three days, CellTiter-Glo, read-out: MOLM-13 IC50.
The mark [4] stands for this setting: MOLM-13 cells, compound with gilteritinib 20 nM, three days, CellTiter-Glo, read-out: MOLM-13 IC50 gilteritinib.
The mark [5] stands for this setting: MV4;11 cells, with gilteritinib 10 nM, three days, CellTiter-Glo, 11 IC50 gilteritinib.
Setting [6] is: MOLM-13 cells, with gilteritinib 20 nM, three days, CellTiter-Glo, read-out: MOLM-13 IC50 gilteritinib.
[7] abbreviates: MV4;11 cells, with 10 nM gilteritinib, 3 days, CellTiter-Glo, 11 IC50 gilteritinib.
Setting [8] is: MV4;11 cells, without gilteritinib, 3 days, CellTiter-Glo, 11 IC50.
Where [9] appears, read: MOLM-13 cells, with 20 nM gilteritinib, 3 days, CellTiter-Glo, read-out: MOLM-13 IC50 gilteritinib.
[10] abbreviates: MOLM-13 cells, without gilteritinib, 3 days, CellTiter-Glo, read-out: MOLM-13 IC50.

Read-outs that look alike come from different tables or passages of the source. A value given as a limit tells only on which side of the number the result lay.

As to `O=C1CCC(N2C(=O)c3ccc(NCCC[C@H]4C[C@H](n5cc(-c6nccc7cnccc67)c(C6CC6)n5)C4)cc3C2=O)C(=O)N1` (stereo partly drawn) [GS-628, 5-((3-(trans-3-(3-Cyclopropyl-4-(2,6-naphthyridin-1-yl)-1H-pyrazol-1-yl)cyclobutyl)propyl)amino)-2-(2,6-dioxopiperidin-3-yl)isoindoline-1,3-dione], the IC50 with MV4;11 cells (setting [1]) is greater than 1000 nM; in the experiment on MV4;11 cells (setting [2]), 10 to 100 nM; with MOLM-13 cells (setting [3]) it was greater than 1000 nM; in the experiment with MOLM-13 cells (setting [4]), 10 to 100 nM.
Regarding `O=C1CCC(N2C(=O)c3ccc(NCCCCCC(=O)N4CCC(n5cc(-c6ccccc6)cn5)CC4)cc3C2=O)C(=O)N1` (stereo not shown) [GS-050, 2-(2,6-Dioxopiperidin-3-yl)-5-((6-oxo-6-(4-(4-phenyl-1H-pyrazol-1-yl)piperidin-1-yl)hexyl)amino)isoindoline-1,3-dione], the IC50 in the experiment on MV4;11 cells (11 IC50) is less than 10 nM; with MV4;11 cells (11 IC50 gilteritinib) it was less than 10 nM; in the experiment on MOLM-13 cells (read-out: MOLM-13 IC50), 10 to 100 nM; in the experiment on MOLM-13 cells (read-out: MOLM-13 IC50 gilteritinib) it was less than 10 nM.
As for `O=C1CCC(N2Cc3c(Nc4ccnc(N5CCC(N6CCC(n7cc(-c8cnc9ccccc9n8)cn7)CC6)C5)n4)cccc3C2=O)C(=O)N1` (stereo not shown) [GS-074, 3-(1-Oxo-4-((2-(3-(4-(4-(quinoxalin-2-yl)-1H-pyrazol-1-yl)piperidin-1-yl)pyrrolidin-1-yl)pyrimidin-4-yl)amino)isoindolin-2-yl)piperidine-2,6-dione], the IC50 with MV4;11 cells (setting [1]), with MV4;11 cells (setting [5]), with MOLM-13 cells (setting [3]) and in the experiment with MOLM-13 cells (setting [6]) was greater than 1000 nM each time.
Turning to `O=C1CCC(N2C(=O)c3ccc(NCCC[C@H]4C[C@@H](n5cc(-c6cnc7ccc(C8CCOCC8)cc7n6)c(C(F)(F)F)n5)C4)cc3C2=O)C(=O)N1` (stereo partly drawn) [GS-210, 2-(2,6-Dioxopiperidin-3-yl)-5-((3-(cis-3-(4-(7-(tetrahydro-2H-pyran-4-yl)quinoxalin-2-yl)-3-(trifluoromethyl)-1H-pyrazol-1-yl)cyclobutyl)propyl)amino)isoindoline-1,3-dione], the IC50 in the experiment on MV4;11 cells (setting [1]), with MV4;11 cells (setting [5]), with MOLM-13 cells (setting [3]) and in the experiment on MOLM-13 cells (setting [6]) was less than 10 nM in each case.
As to `O=C1CCC(N2C(=O)c3ccc(NCCC[C@H]4C[C@@H](n5cc(-c6cnc7cc(C8CCOCC8)ccc7n6)cn5)C4)cc3C2=O)C(=O)N1` (stereo partly drawn) [GS-430, 2-(2,6-dioxopiperidin-3-yl)-5-((3-(cis-3-(4-(6-(tetrahydro-2H-pyran-4-yl)quinoxalin-2-yl)-1H-pyrazol-1-yl)cyclobutyl)propyl)amino)isoindoline-1,3-dione], the IC50 in the experiment on MV4;11 cells (setting [1]) is 100 to 1000 nM; in the experiment with MV4;11 cells (setting [2]), 10 to 100 nM; in the experiment with MOLM-13 cells (setting [3]), greater than 1000 nM; in the experiment with MOLM-13 cells (setting [4]) it was 10 to 100 nM.
Consider `CN1CCC(c2cccc3nc(-c4cnn([C@H]5C[C@H](CCCNc6ccc7c(c6)C(=O)N(C6CCC(=O)NC6=O)C7=O)C5)c4)cnc23)CC1` (stereo partly drawn) [GS-426, 2-(2,6-dioxopiperidin-3-yl)-5-((3-(trans-3-(4-(5-(1-methylpiperidin-4-yl)quinoxalin-2-yl)-1H-pyrazol-1-yl)cyclobutyl)propyl)amino)isoindoline-1,3-dione], for which the IC50 with MV4;11 cells (setting [1]) was 10 to 100 nM; in the experiment on MV4;11 cells (setting [2]), less than 10 nM; in the experiment with MOLM-13 cells (setting [3]) it was 10 to 100 nM; in the experiment on MOLM-13 cells (setting [4]), less than 10 nM.
For `O=C1CCC(N2C(=O)c3ccc(NCCCCCC(=O)N4CCC(n5cc(N6CCC6)cn5)CC4)cc3C2=O)C(=O)N1` (stereo not shown) [GS-063, 5-((6-(4-(4-(Azetidin-1-yl)-1H-pyrazol-1-yl)piperidin-1-yl)-6-oxohexyl)amino)-2-(2,6-dioxopiperidin-3-yl)isoindoline-1,3-dione], the IC50 in the experiment on MV4;11 cells (setting [7]) is 8550 nM; in the experiment with MV4;11 cells (setting [8]) it was greater than 10000 nM; in the experiment on MOLM-13 cells (setting [9]) it was 3680 nM; in the experiment with MOLM-13 cells (setting [10]) it was greater than 10000 nM.
Consider `CN(c1ccc2[nH]ccc2n1)C1CCN(CC(=O)NCCNc2ccc3c(c2)C(=O)N(C2CCC(=O)NC2=O)C3=O)CC1` (stereo not shown) [GS-322, N-(2-((2-(2,6-Dioxopiperidin-3-yl)-1,3-dioxoisoindolin-5-yl)amino)ethyl)-2-(4-(methyl(1H-pyrrolo[3,2-b]pyridin-5-yl)amino)piperidin-1-yl)acetamide], for which the IC50 in the experiment on MV4;11 cells (setting [1]), with MV4;11 cells (setting [5]), in the experiment on MOLM-13 cells (setting [3]) and in the experiment with MOLM-13 cells (setting [6]) was greater than 1000 nM each time.
On to `O=C1CCC(N2Cc3cc(OCCCN4CCC(n5cc(-c6cnc7ccccc7n6)cn5)CC4)ccc3C2=O)C(=O)N1` (stereo not shown) [GS-492, 3-(1-oxo-5-(3-(4-(4-(quinoxalin-2-yl)-1H-pyrazol-1-yl)piperidin-1-yl)propoxy)isoindolin-2-yl)piperidine-2,6-dione], for which the IC50 in the experiment with MV4;11 cells (setting [1]), in the experiment on MV4;11 cells (setting [2]), with MOLM-13 cells (setting [3]) and in the experiment on MOLM-13 cells (setting [4]) was greater than 1000 nM each time.
Turning to `O=C1CCC(N2Cc3cc(NCCCC4CC(n5cc(-c6cnc7ccccc7n6)cn5)C4)ccc3C2=O)C(=O)N1` (stereo not shown) [GS-140, 3-(1-Oxo-5-((3-(3-(4-(quinoxalin-2-yl)-1H-pyrazol-1-yl)cyclobutyl)propyl)amino)isoindolin-2-yl)piperidine-2,6-dione], the IC50 was 10 to 100 nM in the experiment on MV4;11 cells (setting [1]), 100 to 1000 nM in the experiment with MV4;11 cells (setting [5]), greater than 1000 nM with MOLM-13 cells (setting [3]) and greater than 1000 nM in the experiment with MOLM-13 cells (setting [6]).
Consider `O=C1CCC(N2C(=O)c3ccc(CC[C@H]4C[C@H](n5cc(-c6cnc7ccccc7n6)c(C6CC6)n5)C4)cc3C2=O)C(=O)N1` (stereo partly drawn) [GS-627, 5-(2-(trans-3-(3-Cyclopropyl-4-(quinoxalin-2-yl)-1H-pyrazol-1-yl)cyclobutyl)ethyl)-2-(2,6-dioxopiperidin-3-yl)isoindoline-1,3-dione], for which the IC50 with MV4;11 cells (setting [1]), in the experiment on MV4;11 cells (setting [2]), with MOLM-13 cells (setting [3]) and in the experiment with MOLM-13 cells (setting [4]) was greater than 1000 nM each time.
Consider `O=C1CCC(N2C(=O)c3ccc(NCCC[C@H]4C[C@H](n5cc(-c6cnc7ccc(CN8CCOCC8)cc7n6)c(C6CC6)n5)C4)cc3C2=O)C(=O)N1` (stereo partly drawn) [GS-230, 5-((3-(trans-3-(3-Cyclopropyl-4-(7-(morpholinomethyl)quinoxalin-2-yl)-1H-pyrazol-1-yl)cyclobutyl)propyl)amino)-2-(2,6-dioxopiperidin-3-yl)isoindoline-1,3-dione], for which the IC50 in the experiment on MV4;11 cells (setting [1]) was 10 to 100 nM; in the experiment on MV4;11 cells (setting [5]), less than 10 nM; with MOLM-13 cells (setting [3]) it was 10 to 100 nM; in the experiment on MOLM-13 cells (setting [6]) it was less than 10 nM.
On to `O=C1CCC(N2C(=O)c3ccc(NCCCCC4(N5CCC(n6cc(-c7cnc8ccccc8n7)cn6)CC5)CC4)cc3C2=O)C(=O)N1` (stereo not shown) [GS-124, 2-(2,6-Dioxopiperidin-3-yl)-5-((4-(1-(4-(4-(quinoxalin-2-yl)-1H-pyrazol-1-yl)piperidin-1-yl)cyclopropyl)butyl)amino)isoindoline-1,3-dione], for which the IC50 was greater than 1000 nM in the experiment on MV4;11 cells (setting [1]), greater than 1000 nM with MV4;11 cells (setting [5]), greater than 1000 nM in the experiment with MOLM-13 cells (setting [3]) and 10 to 100 nM with MOLM-13 cells (setting [6]).
For `O=C1CCC(N2Cc3cc(CNC(=O)C(F)(F)c4cccc(N5CCC(n6cc(-c7cnc8cccc(Br)c8n7)cn6)CC5)c4)ccc3C2=O)C(=O)N1` (stereo not shown) [GS-004, 2-(3-(4-(4-(8-bromoquinoxalin-2-yl)-1H-pyrazol-1-yl)piperidin-1-yl)phenyl)-N-((2-(2,6-dioxopiperidin-3-yl)-1-oxoisoindolin-5-yl)methyl)-2,2-difluoroacetamide], the IC50 worked out at 0.5 nM in the experiment with MV4;11 cells (setting [7]), 1.3 nM in the experiment with MV4;11 cells (setting [8]), 0.2 nM in the experiment with MOLM-13 cells (setting [9]) and 2.1 nM with MOLM-13 cells (setting [10]).
For `CN1C[C@H]2C[C@@H]1CN2c1ccc2ncc(-c3cnn([C@H]4C[C@H](CCCNc5ccc6c(c5)C(=O)N(C5CCC(=O)NC5=O)C6=O)C4)c3)nc2c1` (stereo partly drawn) [GS-411, 2-(2,6-dioxopiperidin-3-yl)-5-((3-(trans-3-(4-(7-((1R,4R)-5-methyl-2,5-diazabicyclo[2.2.1]heptan-2-yl)quinoxalin-2-yl)-1H-pyrazol-1-yl)cyclobutyl)propyl)amino)isoindoline-1,3-dione], the IC50 was 10 to 100 nM in the experiment on MV4;11 cells (setting [1]), less than 10 nM in the experiment with MV4;11 cells (setting [5]), greater than 1000 nM in the experiment on MOLM-13 cells (setting [3]) and less than 10 nM with MOLM-13 cells (setting [6]).
On to `O=C1CCC(N2C(=O)c3ccc(NC[C@H]4C[C@H](n5cc(-c6ccc(Cl)cc6)c(C6CC6)n5)C4)cc3C2=O)C(=O)N1` (stereo partly drawn) [GS-456, 5-(((trans-3-(4-(4-chlorophenyl)-3-cyclopropyl-1H-pyrazol-1-yl)cyclobutyl)methyl)amino)-2-(2,6-dioxopiperidin-3-yl)isoindoline-1,3-dione], for which the IC50 with MV4;11 cells (setting [1]) is 100 to 1000 nM; with MV4;11 cells (setting [2]), 10 to 100 nM; with MOLM-13 cells (setting [3]), greater than 1000 nM; in the experiment with MOLM-13 cells (setting [4]), 10 to 100 nM.
